Our source for the inhibition and IC50 values is ChEMBL document CHEMBL1151010, “A case study of combinatorial libraries: Endothelin receptor antagonist hexapeptides” (Bioorg Med Chem Lett, 1995).

Square brackets hold non-standard residues; d marks the D form. Peptide text beside a SMILES is read from it. dGly(5-dibenzosuberyl) = N[C@@H](C(=O)O)C1c2ccccc2CCc2ccccc21

The term inhibition denotes the drop in the measured response relative to a control, in per cent. As a reminder, the IC50 is the concentration at which inhibition is half-maximal.

Test [1] has as its target T1, Endothelin-1 receptor (Sus scrofa) (UniProt Q29010).
T1 sequence (whole entry): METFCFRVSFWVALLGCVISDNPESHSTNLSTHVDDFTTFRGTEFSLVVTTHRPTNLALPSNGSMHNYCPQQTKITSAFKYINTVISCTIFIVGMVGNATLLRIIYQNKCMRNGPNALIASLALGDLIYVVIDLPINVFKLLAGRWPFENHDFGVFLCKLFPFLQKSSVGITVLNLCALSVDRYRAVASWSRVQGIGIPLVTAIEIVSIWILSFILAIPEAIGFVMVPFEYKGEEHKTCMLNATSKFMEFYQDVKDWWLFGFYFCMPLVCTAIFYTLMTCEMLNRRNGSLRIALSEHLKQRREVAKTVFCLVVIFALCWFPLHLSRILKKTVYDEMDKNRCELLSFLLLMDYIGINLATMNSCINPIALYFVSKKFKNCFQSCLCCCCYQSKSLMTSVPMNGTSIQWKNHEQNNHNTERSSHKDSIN
In words: (§1) Inhibition of endothelin (ET-A) binding to porcine heart membranes. More on the design: concentration or dose not given beside the values. The note with it: Membrane, concentration not given here.

Test [2] addresses T1, Endothelin-1 receptor (Sus scrofa). In words: Antagonist activity against ET-A from porcine heart membranes. Format: functional, tissue-based. The conditions noted are these: concentration not given here.
A further test concerns the target T2, Endothelin-1 receptor (Sus scrofa, UniProt Q29010).
T2 sequence (Q29010 whole entry): T1 sequence (whole entry)
Described as §1. The arrangement: species or system Membrane.

The target of test [3] is T1, Endothelin-1 receptor (Sus scrofa). Described as §1. The conditions noted are these: Membrane, concentration not given here. The arrangement: concentration or dose not given beside the values. The source holds these as a separate data set.

Regarding `CC[C@H](C)[C@H](NC(=O)CNC(=O)[C@H](C)NC(=O)[C@H](CC(C)C)NC(=O)[C@H](NC(C)=O)C1c2ccccc2CCc2ccccc21)C(=O)N[C@@H](Cc1c[nH]c2ccccc12)C(=O)O`, the inhibition in test [1] worked out at 62%.
`CC[C@H](C)[C@H](NC(=O)[C@@H](NC(=O)[C@H](CC(=O)O)NC(=O)[C@H](CCC(N)=O)NC(=O)[C@H](NC(C)=O)C1c2ccccc2CCc2ccccc21)C1CCCCC1)C(=O)N[C@@H](Cc1c[nH]c2ccccc12)C(=O)O` gave an inhibition in test [2] of 49%.
In the case of `CC[C@H](C)[C@H](NC(=O)[C@@H](NC(=O)[C@H](CC(=O)O)NC(=O)[C@H](CC(C)C)NC(=O)[C@H](NC(C)=O)C1c2ccccc2CCc2ccccc21)C1CCCCC1)C(=O)N[C@@H](Cc1c[nH]c2ccccc12)C(=O)O`, in test [2], the inhibition was determined as 47%.
In the case of `CC[C@H](C)[C@H](NC(=O)CNC(=O)[C@H](CCC(N)=O)NC(=O)[C@H](CC(C)C)NC(=O)[C@H](NC(C)=O)C1c2ccccc2CCc2ccccc21)C(=O)N[C@@H](Cc1c[nH]c2ccccc12)C(=O)O`, the inhibition in test [1] is 66%. Also, the IC50 on Endothelin-1 receptor is 180 nM.
For the compound `CC[C@H](C)[C@H](NC(=O)CNC(=O)[C@H](CCSC)NC(=O)[C@H](CC(C)C)NC(=O)[C@H](NC(C)=O)C1c2ccccc2CCc2ccccc21)C(=O)N[C@@H](Cc1c[nH]c2ccccc12)C(=O)O`, the inhibition in test [1] was 61%.
In the case of `CC[C@H](C)[C@H](NC(=O)[C@@H](NC(=O)[C@H](CC(=O)O)NC(=O)[C@H](CC(C)C)NC(=O)[C@H](NC(C)=O)C1c2ccccc2CCc2ccccc21)C(C)C)C(=O)N[C@@H](Cc1c[nH]c2ccccc12)C(=O)O`, the inhibition in test [3] amounted to 70%. The same compound showed an IC50 at Endothelin-1 receptor of 5 nM.
With `CC[C@H](C)[C@H](NC(=O)CNC(=O)[C@H](CCCN=C(N)N)NC(=O)[C@H](CC(C)C)NC(=O)[C@H](NC(C)=O)C1c2ccccc2CCc2ccccc21)C(=O)N[C@@H](Cc1c[nH]c2ccccc12)C(=O)O`, the inhibition in test [1] was determined as 27%.
Same read-out and setting: the result for `CC[C@H](C)[C@H](NC(=O)CNC(=O)[C@@H]1CCCN1C(=O)[C@H](CC(C)C)NC(=O)[C@H](NC(C)=O)C1c2ccccc2CCc2ccccc21)C(=O)N[C@@H](Cc1c[nH]c2ccccc12)C(=O)O` reads 7%; that for `CC[C@H](C)[C@H](NC(=O)CNC(=O)[C@H](CC(C)C)NC(=O)[C@H](CC(C)C)NC(=O)[C@H](NC(C)=O)C1c2ccccc2CCc2ccccc21)C(=O)N[C@@H](Cc1c[nH]c2ccccc12)C(=O)O`, 34%.
Regarding `CC[C@H](C)[C@H](NC(=O)[C@H](CC(N)=O)NC(=O)[C@H](CC(=O)O)NC(=O)[C@H](CC(C)C)NC(=O)[C@H](NC(C)=O)C1c2ccccc2CCc2ccccc21)C(=O)N[C@@H](Cc1c[nH]c2ccccc12)C(=O)O`, the inhibition in test [3] was found to be 41%. Besides, the IC50 on Endothelin-1 receptor is 40 nM.
For `CC(=O)N[C@@H](C(=O)N[C@@H](CC(C)C)C(=O)N[C@@H](CO)C(=O)NCC(=O)N[C@H](C(=O)N[C@@H](Cc1c[nH]c2ccccc12)C(=O)O)C(C)C)C1c2ccccc2CCc2ccccc21`, the inhibition in test [1] came to 65%.
On to `CC[C@H](C)[C@H](NC(=O)[C@H](C)NC(=O)[C@H](CC(=O)O)NC(=O)[C@H](CC(C)C)NC(=O)[C@H](NC(C)=O)C1c2ccccc2CCc2ccccc21)C(=O)N[C@@H](Cc1c[nH]c2ccccc12)C(=O)O`, for which, in test [3], the inhibition is 47%. The same compound gave an IC50 on Endothelin-1 receptor of 30 nM.
For the compound `CC[C@H](C)[C@H](NC(=O)CNC(=O)[C@H](Cc1c[nH]cn1)NC(=O)[C@H](CC(C)C)NC(=O)[C@H](NC(C)=O)C1c2ccccc2CCc2ccccc21)C(=O)N[C@@H](Cc1c[nH]c2ccccc12)C(=O)O`, in test [1], the inhibition stood at 56%.
In the case of `CC[C@H](C)[C@H](NC(=O)CNC(=O)[C@H](CC(=O)O)NC(=O)[C@H](CC(C)C)NC(=O)[C@H](NC(C)=O)C1c2ccccc2CCc2ccccc21)C(=O)N[C@@H](Cc1c[nH]c2ccccc12)C(=O)O`, the inhibition in test [3] was 41%; in test [1] it was 93%. The same compound came in with an IC50 on Endothelin-1 receptor of 18 nM.
`CC[C@H](C)[C@H](NC(=O)CNC(=O)[C@H](Cc1ccccc1)NC(=O)[C@H](CC(C)C)NC(=O)[C@H](NC(C)=O)C1c2ccccc2CCc2ccccc21)C(=O)N[C@@H](Cc1c[nH]c2ccccc12)C(=O)O` had an inhibition in test [1] of 42%.
Still for that read-out and setting: the result for `CC[C@@H](C)[C@H](NC(=O)[C@H](CC(C)C)NC(=O)[C@H](NC(C)=O)C1c2ccccc2CCc2ccccc21)C(=O)NCC(=O)N[C@H](C(=O)N[C@@H](Cc1c[nH]c2ccccc12)C(=O)O)[C@@H](C)CC` reads 22%.
In test [1], `CC[C@H](C)[C@H](NC(=O)CNC(=O)[C@H](CCC(=O)O)NC(=O)[C@H](CC(C)C)NC(=O)[C@H](NC(C)=O)C1c2ccccc2CCc2ccccc21)C(=O)N[C@@H](Cc1c[nH]c2ccccc12)C(=O)O` yielded an inhibition of 88%. On Endothelin-1 receptor, this compound returned an IC50 of 48 nM.
In turn, `CC[C@H](C)[C@H](NC(=O)CNC(=O)[C@H](CCCCN)NC(=O)[C@H](CC(C)C)NC(=O)[C@H](NC(C)=O)C1c2ccccc2CCc2ccccc21)C(=O)N[C@@H](Cc1c[nH]c2ccccc12)C(=O)O` showed an inhibition in test [1] of 16%.
On to `CC[C@H](C)[C@H](NC(=O)CNC(=O)CNC(=O)[C@H](CC(C)C)NC(=O)[C@H](NC(C)=O)C1c2ccccc2CCc2ccccc21)C(=O)N[C@@H](Cc1c[nH]c2ccccc12)C(=O)O`, for which the inhibition in test [1] is 41%. This compound also showed an IC50 on Endothelin-1 receptor of 150 nM.
`CC[C@H](C)[C@H](NC(=O)CNC(=O)[C@@H](NC(=O)[C@H](CC(C)C)NC(=O)[C@H](NC(C)=O)C1c2ccccc2CCc2ccccc21)[C@@H](C)O)C(=O)N[C@@H](Cc1c[nH]c2ccccc12)C(=O)O` returned a half-maximal inhibitory concentration (IC50) on Endothelin-1 receptor of 350 nM.
On to `CC[C@H](C)[C@H](NC(=O)CNC(=O)[C@H](CC(N)=O)NC(=O)[C@H](CC(C)C)NC(=O)[C@H](NC(C)=O)C1c2ccccc2CCc2ccccc21)C(=O)N[C@@H](Cc1c[nH]c2ccccc12)C(=O)O`, for which the inhibition in test [1] turned out to be 74%. On Endothelin-1 receptor, this compound came in with an IC50 of 120 nM.
`CC[C@H](C)[C@H](NC(=O)CNC(=O)[C@H](CO)NC(=O)[C@H](CC(C)C)NC(=O)[C@H](NC(C)=O)C1c2ccccc2CCc2ccccc21)C(=O)N[C@@H](Cc1c[nH]c2ccccc12)C(=O)O` yielded an IC50 at Endothelin-1 receptor of 380 nM.
`CC[C@H](C)[C@H](NC(=O)[C@H](CCC(N)=O)NC(=O)[C@H](CC(=O)O)NC(=O)[C@H](CC(C)C)NC(=O)[C@H](NC(C)=O)C1c2ccccc2CCc2ccccc21)C(=O)N[C@@H](Cc1c[nH]c2ccccc12)C(=O)O` gave an inhibition in test [3] of 12%.
In test [3], `CC[C@H](C)[C@H](NC(=O)[C@H](Cc1ccccc1)NC(=O)[C@H](CC(=O)O)NC(=O)[C@H](CC(C)C)NC(=O)[C@H](NC(C)=O)C1c2ccccc2CCc2ccccc21)C(=O)N[C@@H](Cc1c[nH]c2ccccc12)C(=O)O` (Ac-[dGly(5-dibenzosuberyl)]LDFIW-OH) gave an inhibition of 12%.
As for `CC[C@H](C)[C@H](NC(=O)[C@H](CCSC)NC(=O)[C@H](CC(=O)O)NC(=O)[C@H](CC(C)C)NC(=O)[C@H](NC(C)=O)C1c2ccccc2CCc2ccccc21)C(=O)N[C@@H](Cc1c[nH]c2ccccc12)C(=O)O`, in test [3], the inhibition amounted to 26%. Besides, the IC50 at Endothelin-1 receptor was found to be 40 nM.
